# Data reported in patent US10100054B1, “Pyrido[2,3-d]pyrimidines as anticancer agents” (KING SAUD UNIVERSITY, priority 2018, dated 2018).
# Assays:
# [1] = test system: PC3; assay: In vitro anticancer screening, MTT cell viability; assay type: cell-based; details: Homo sapiens, PC-3; for inhibition at 100 µM: PC3, 100 μM dose, read-out: Growth inhibition (%); for IC50: PC3, MTT, 48 h
# Protocol: (§1) Anticancer activity screening was adopted against five cancer cell lines, viz., HepG2, PC-3, HCT116, MCF-7, A549, and doxorubicin was used as a reference standard at 100 micromole.
# (§2) Cell viability was assessed by the mitochondrial dependent reduction of yellow MTT (3-(4,5-dimethylthiazol-2-yl)-2,5-diphenyl tetrazolium bromide) to purple formazan. All the following procedures were done in a sterile area using a laminar air flow cabinet of class II biosafety (Baker, SG403INT, Sanford, Me., USA). Cells were suspended in DMEM medium for PC-3, and RPMI1640 in case of A-549, MCF-7, HCT-116 and HePG-2. The media are supplemented with 1% antibiotic antimycotic mixture (10,000 U ml^−1 Potassium Penicillin, 10,000 μg ml^−1 Streptomycin Sulfate and 25 μg ml^−1 Amphotericin B), 1% L-glutamine and 10% fetal bovine serum (complete growth medium) and kept at […] under 5% CO2. Cells were batch cultured for 10 days, then seeded at a concentration of 10×10^3 cells/well in fresh complete growth medium in 96-well Microtiter plastic plates at 37° C. for 24 h under 5% CO2 and a humid atmosphere using a water jacketed carbon dioxide incubator (Sheldon, TC2323, Cornelius, Oreg., USA). Media was aspirated, fresh medium (without serum) was added, and cells were incubated either alone (negative control) or with serial dilutions of each sample. After 48 h of incubation, the medium was aspirated, 40 μl MTT salt (2.5 μg ml^−1) was added to each well and incubated for a further four hours at 37° C. under 5% CO2. To stop the reaction and dissolving the formed crystals, 200 μl of 10% sodium dodecyl sulfate (SDS) in deionized water was added to each well and incubated overnight at 37° C. The absorbance was then measured using a microplate multi-well reader ELISA reader (Bio-Rad Laboratories Inc., model 3350, Hercules, Calif., USA) at 595 nm and a reference wavelength of 620 nm. A statistical significance was tested between samples and negative control (cells with vehicle) using independent t-test by SPSS 11 program. DMSO is the vehicle used for dissolution of plant extracts, and its final concentration in the cells was less than 0.2%. The percentage of change in viability was calculated according to the formula: (average absorbance of extract/average absorbance of negative control)−1)×100. A probit analysis was carried for IC50 determination using SPSS 11 program.
# [2] = test system: A549; assay: In vitro anticancer screening, MTT cell viability; assay type: cell-based; details: Homo sapiens; for inhibition at 100 µM: A549, 100 μM dose, read-out: Growth inhibition (%)
# Protocol: as §1, §2
# [3] = test system: MCF7; assay: In vitro anticancer screening, MTT cell viability; assay type: cell-based; details: Homo sapiens; for inhibition at 100 µM: MCF7, 100 μM dose, read-out: Growth inhibition (%)
# Protocol: as §1, §2
# [4] = test system: HepG2; assay: In vitro anticancer screening, MTT cell viability; assay type: cell-based; details: Homo sapiens; for inhibition at 100 µM: HepG2, 100 μM dose, read-out: Growth inhibition (%); for IC50: HepG2, MTT, 48 h
# Protocol: as §1, §2
# [5] = test system: HCT116; assay: In vitro anticancer screening, MTT cell viability; assay type: cell-based; details: Homo sapiens, HCT-116; for inhibition at 100 µM: HCT116, 100 μM dose, read-out: Growth inhibition (%); for IC50: HCT116, MTT, 48 h
# Protocol: as §1, §2
# [6] = target: PDGFRβ (Homo sapiens, UniProt P09619); assay: Kinase screening (radiometric or ADP-Glo assay); assay type: biochemical
# Protocol: (§3) The in vitro enzyme inhibition determination for the pyrido[2,3-d]pyrimidine derivatives was performed against a range of five protein kinases [PDGFR beta, EGFR, CDK4/Cyclin D1, PI3K (p100b/p85a), and PI3K (p100a/p85a)], including two concentrations (50 & 100 μM) in single measurements using the radiometric or ADP-Glo assay method. The intra-assay variability was determined to be less than 10%. Inhibition of target activity by the compound gives negative (−) values, while activation of target activity gives positive (+) value.
# (§4) The pyrido[2,3-d]pyrimidine derivative 5 was supplied by Kinexus as a powder, and a stock solution was made in DMSO. The stock solution was then diluted to form an assay stock solution, and this was used to profile against the protein kinases and lipid protein kinases [PDGFR beta, EGFR, CDK4/Cyclin D1, PI3K (p100b/p85a), and PI3K (p100a/p85a)]. The assay condition for the protein kinase targets was optimized to yield acceptable enzymatic activity. In addition, the assays were optimized to give high signal-to-noise ratio.
# (§5) For Protein Kinase (PK) Assays, a radioisotope assay format was used for profiling evaluation of PK targets and all assays were carried out in a designated radioactive working area. PK assays (in singlicate) were performed at ambient temperature for 30 min in a final volume of 25 μl according to the following assay reaction recipe: Component 1:5 μl of diluted active PK target (˜10-50 nM final concentration); Component 2:5 μl of stock solution of substrate (1-5 μg of peptide substrate); Component 3:5 μl of kinase assay buffer; Component 4:5 μl of compound (50 μM) or 10% DMSO; and Component 5:5 μl of ^33P-ATP (250 μM stock solution, 0.8 μCi).
# (§6) The assay was initiated by the addition of ^33P-ATP, and the reaction mixture incubated at ambient temperature for 30 minutes. After the incubation period, the assay was terminated by spotting 10 μl of the reaction mixture onto Multiscreen phosphocellulose P81 plate. The Multiscreen phosphocellulose P81 plate was washed 3 times for approximately 15 min each in a 1% phosphoric acid solution. The radioactivity on the P81 plate was counted in the presence of scintillation fluid in a Trilux scintillation counter. Blank control was set up that included all the assay components except the addition of the appropriate substrate (replaced with equal volume of assay dilution buffer). The corrected activity for PK target was determined by removing the blank control value.
# [7] = target: CDK4/CyclinD1 (Homo sapiens, UniProt P11802); assay: Kinase screening (radiometric or ADP-Glo assay); assay type: biochemical
# Protocol: as §3, §4, §5, §6
# [8] = target: EGFR (Homo sapiens, UniProt P00533); assay: Kinase screening (radiometric or ADP-Glo assay); assay type: biochemical
# Protocol: as §3, §4, §5, §6
# [9] = target: PI3K (p110a/p85a) (Homo sapiens, UniProt P42336); assay: Kinase screening (radiometric or ADP-Glo assay); assay type: biochemical; details: negative values: inhibition, positive values: activation of target activity
# Protocol: as §3, §4, §5, §6
# PDGFRβ, sequence (P09619 33-1106, species assumed): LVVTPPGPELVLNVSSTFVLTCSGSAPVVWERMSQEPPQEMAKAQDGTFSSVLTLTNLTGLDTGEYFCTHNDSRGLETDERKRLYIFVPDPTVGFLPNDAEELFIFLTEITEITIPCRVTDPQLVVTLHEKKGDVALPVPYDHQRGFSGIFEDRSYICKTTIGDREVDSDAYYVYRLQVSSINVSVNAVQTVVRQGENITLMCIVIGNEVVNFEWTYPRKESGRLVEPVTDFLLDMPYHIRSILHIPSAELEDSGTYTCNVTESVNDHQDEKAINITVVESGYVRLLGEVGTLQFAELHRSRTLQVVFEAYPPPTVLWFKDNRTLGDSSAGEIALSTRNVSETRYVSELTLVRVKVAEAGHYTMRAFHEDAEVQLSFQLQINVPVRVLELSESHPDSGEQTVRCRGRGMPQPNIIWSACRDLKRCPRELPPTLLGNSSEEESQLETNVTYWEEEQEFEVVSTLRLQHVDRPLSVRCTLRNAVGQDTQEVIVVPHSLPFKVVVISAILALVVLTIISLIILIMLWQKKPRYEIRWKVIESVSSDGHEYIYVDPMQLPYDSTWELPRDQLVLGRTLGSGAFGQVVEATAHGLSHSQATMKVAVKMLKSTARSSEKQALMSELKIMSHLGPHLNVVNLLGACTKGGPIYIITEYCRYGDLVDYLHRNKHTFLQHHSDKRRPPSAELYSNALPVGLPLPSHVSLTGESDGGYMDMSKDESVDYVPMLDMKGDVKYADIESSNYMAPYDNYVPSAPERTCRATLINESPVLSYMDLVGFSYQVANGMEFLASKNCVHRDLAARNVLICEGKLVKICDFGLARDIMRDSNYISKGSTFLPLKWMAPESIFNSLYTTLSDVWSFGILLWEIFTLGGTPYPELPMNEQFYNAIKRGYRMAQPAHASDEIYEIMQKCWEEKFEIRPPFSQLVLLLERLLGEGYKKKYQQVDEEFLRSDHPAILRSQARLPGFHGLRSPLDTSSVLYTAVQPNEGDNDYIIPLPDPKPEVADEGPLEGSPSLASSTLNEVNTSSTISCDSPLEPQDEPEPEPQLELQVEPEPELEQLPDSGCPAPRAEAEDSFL
# CDK4/CyclinD1, sequence (P11802 whole entry, species assumed): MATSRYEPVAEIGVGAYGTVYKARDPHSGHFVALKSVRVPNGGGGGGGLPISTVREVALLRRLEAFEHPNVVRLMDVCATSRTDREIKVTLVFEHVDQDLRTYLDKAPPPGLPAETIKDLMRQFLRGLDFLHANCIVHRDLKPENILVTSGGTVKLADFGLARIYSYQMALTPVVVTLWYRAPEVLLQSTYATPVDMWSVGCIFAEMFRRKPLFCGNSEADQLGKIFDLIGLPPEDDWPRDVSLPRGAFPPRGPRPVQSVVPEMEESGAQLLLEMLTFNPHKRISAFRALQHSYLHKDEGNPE
# CDK4/CyclinD1, sequence (P24385 whole entry partner, species assumed): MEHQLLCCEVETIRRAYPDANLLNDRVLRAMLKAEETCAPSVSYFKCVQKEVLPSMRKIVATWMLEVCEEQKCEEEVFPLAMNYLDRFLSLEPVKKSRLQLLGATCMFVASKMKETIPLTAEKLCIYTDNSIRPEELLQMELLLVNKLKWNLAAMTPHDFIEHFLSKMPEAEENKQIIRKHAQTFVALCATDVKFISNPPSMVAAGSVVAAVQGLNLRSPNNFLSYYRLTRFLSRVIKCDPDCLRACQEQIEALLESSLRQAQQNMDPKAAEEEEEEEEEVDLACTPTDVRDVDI
# PI3K (p110a/p85a), sequence (P42336 whole entry): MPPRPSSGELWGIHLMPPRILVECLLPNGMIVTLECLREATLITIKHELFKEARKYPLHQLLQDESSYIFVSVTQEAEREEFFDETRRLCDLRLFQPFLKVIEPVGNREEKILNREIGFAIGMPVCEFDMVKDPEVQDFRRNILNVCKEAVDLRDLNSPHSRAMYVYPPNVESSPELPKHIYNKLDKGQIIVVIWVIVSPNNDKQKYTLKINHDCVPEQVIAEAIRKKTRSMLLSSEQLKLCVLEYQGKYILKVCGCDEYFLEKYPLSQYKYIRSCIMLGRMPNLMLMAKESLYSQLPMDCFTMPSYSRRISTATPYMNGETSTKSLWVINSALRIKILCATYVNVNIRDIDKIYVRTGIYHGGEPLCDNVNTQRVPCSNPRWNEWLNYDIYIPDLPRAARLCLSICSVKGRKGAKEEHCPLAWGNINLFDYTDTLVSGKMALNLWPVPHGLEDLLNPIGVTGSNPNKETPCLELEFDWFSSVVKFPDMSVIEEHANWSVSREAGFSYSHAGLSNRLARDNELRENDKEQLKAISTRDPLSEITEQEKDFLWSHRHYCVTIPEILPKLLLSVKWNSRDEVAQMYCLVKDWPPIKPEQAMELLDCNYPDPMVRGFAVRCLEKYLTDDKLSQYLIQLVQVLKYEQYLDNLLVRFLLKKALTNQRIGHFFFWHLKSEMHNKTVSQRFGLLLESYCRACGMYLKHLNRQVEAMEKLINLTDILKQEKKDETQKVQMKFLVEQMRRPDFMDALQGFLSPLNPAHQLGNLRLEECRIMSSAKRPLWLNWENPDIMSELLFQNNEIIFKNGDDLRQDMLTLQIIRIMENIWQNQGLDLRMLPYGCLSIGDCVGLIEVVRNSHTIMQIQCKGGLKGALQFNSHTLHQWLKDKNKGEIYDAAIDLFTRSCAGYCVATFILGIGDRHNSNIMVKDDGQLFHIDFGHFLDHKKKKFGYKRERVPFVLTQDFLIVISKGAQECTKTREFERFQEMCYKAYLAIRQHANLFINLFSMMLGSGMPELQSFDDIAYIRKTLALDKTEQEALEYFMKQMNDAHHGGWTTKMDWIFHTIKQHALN
# PI3K (p110a/p85a), sequence (P27986 whole entry partner): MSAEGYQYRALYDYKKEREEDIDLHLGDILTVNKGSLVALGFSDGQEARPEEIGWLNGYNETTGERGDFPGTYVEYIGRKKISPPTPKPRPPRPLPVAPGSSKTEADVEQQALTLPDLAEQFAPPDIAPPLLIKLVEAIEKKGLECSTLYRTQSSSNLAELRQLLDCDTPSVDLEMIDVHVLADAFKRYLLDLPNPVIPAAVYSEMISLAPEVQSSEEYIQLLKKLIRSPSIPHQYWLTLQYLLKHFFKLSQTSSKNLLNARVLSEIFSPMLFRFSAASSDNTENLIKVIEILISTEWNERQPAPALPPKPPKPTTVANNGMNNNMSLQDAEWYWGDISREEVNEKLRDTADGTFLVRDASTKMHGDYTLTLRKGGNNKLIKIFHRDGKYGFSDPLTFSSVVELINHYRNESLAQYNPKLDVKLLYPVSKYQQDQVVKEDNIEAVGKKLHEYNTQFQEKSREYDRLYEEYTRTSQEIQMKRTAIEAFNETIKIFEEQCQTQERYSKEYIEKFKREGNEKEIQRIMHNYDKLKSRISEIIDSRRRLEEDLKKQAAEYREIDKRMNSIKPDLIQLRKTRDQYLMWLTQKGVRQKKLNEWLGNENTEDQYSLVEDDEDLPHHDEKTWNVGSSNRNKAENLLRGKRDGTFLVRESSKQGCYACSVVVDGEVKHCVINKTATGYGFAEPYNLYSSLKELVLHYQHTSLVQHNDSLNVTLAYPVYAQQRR
# EGFR, sequence (P00533 25-1210, species assumed): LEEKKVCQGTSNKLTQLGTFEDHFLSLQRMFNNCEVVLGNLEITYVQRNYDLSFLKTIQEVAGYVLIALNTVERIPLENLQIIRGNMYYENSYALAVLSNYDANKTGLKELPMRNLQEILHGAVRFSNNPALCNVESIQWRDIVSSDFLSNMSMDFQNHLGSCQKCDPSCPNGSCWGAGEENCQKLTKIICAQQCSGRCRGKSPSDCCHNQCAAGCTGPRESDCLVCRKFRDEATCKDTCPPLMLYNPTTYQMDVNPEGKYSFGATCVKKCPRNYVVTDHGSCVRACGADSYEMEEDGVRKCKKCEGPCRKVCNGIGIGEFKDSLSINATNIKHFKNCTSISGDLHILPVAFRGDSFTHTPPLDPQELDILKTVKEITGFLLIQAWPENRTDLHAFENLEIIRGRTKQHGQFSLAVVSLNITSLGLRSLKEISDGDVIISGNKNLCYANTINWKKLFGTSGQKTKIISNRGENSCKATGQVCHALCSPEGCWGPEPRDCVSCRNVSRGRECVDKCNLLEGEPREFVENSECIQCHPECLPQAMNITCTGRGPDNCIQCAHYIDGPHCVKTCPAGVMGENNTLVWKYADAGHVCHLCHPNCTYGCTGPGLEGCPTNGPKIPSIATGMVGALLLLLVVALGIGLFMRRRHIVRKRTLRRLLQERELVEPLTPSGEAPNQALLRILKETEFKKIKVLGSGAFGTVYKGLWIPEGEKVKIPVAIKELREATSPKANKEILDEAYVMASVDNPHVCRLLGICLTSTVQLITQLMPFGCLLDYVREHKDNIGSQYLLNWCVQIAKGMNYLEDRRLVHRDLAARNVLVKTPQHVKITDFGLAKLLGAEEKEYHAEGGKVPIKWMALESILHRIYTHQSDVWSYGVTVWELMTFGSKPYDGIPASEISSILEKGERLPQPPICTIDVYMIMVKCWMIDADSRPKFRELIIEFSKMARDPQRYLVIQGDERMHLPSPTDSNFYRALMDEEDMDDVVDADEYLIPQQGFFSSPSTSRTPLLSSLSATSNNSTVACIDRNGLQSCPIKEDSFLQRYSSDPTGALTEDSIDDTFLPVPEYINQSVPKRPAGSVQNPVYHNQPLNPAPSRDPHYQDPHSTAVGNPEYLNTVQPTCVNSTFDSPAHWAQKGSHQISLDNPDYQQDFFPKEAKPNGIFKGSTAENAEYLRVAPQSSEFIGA
Compound,inhibition at 100 µM [1] [%],IC50 [1] [µM],inhibition at 100 µM [2] [%],inhibition at 100 µM [3] [%],inhibition at 100 µM [4] [%],IC50 [4] [µM],inhibition at 100 µM [5] [%],IC50 [5] [µM],melting point [°C],inhibition at 50 µM ([6]; 50 μM) [%],inhibition at 100 µM ([6]; 100 μM) [%],inhibition at 50 µM ([7]; 50 μM) [%],inhibition at 100 µM ([7]; 100 μM) [%],inhibition at 50 µM ([8]; 50 μM) [%],inhibition at 100 µM ([8]; 100 μM) [%],inhibition at 50 µM ([9]; 50 μM) [%],inhibition at 100 µM ([9]; 100 μM) [%],"IC50 ([2]; A549, MTT, 48 h) [µM]","IC50 ([3]; MCF7, MTT, 48 h) [µM]"
"COc1cccc2c1C(=O)c1c(O)c3c(c(O)c1C2=O)C[C@@](O)(C(=O)CO)C[C@@H]3O[C@H]1C[C@H](N)[C@H](O)[C@H](C)O1 [doxorubicin, reference compound]",100,6.8 ± 1.2,100,91,100,0.6,100,12.8 ± 1,–,–,–,–,–,–,–,–,–,–,–
COc1cccc(-c2cc(-c3cccnc3)nc3nc(-n4[nH]c(C)cc4=O)[nH]c(=O)c23)c1 [Target],100,5.3 ± 0.09,99,87,100,0.3,99,6.9 ± 0.5,> 300,83,90,31,73,79,85,-178,-185,3.21 ± 0.4,9.1 ± 2.1
